Reference: patent US6737383B1, “Herbicidal oxadiazolidines” (priority 1999, dated 2004)

Tests used:
[1] = tested on: bedstraw; assay: Test B pre/postemergence bedstraw; format: in vivo, Galium aparine; conditions: Preemergence; for Bedstraw plant response rating: scale 0 to 10, 0 is no effect, 10 is complete control
Excerpt: (§1) Seeds of bedstraw (Galium aparine), blackgrass (Alopecurus myosuroides), surinam grass (Brachiaria decumbens), cocklebur (Xanthium strumarium), corn (Zea mays), crabgrass (Digitaria sanguinalis), giant foxtail (Setaria faberii), morningglory (Ipomoea hederacea), pigweed (Amaranthus retroflexus), rape (Brassica napus), soybean (Glycine max), sugar beet (Beta vulgaris), velvetleaf (Abutilon theophrasti), wheat (Triticum aestivum), wild oat (Avena fatua) and purple nutsedge (Cyperus rotundus) tubers were planted and treated preemnergence with test chemicals formulated in a non-phytotoxic solvent mixture which included a surfactant.
(§2) At the same time, these crop and weed species were also treated with postemergence applications of test chemicals formulated in the same manner. Plants ranged in height from 2 to 18 cm (1- to 4-leaf stage) for postemergence treatments. Plant species in the flood test consisted of rice (Oryza sativa), smallflower flatsedge (Cyperus difformis), duck salad (Heteranthera limosa) and bamyardgrass (Echinochloa crus-galli) grown to the 2-leaf stage for testing. Treated plants and controls were maintained in a greenhouse for twelve to sixteen days, after which all species were compared to controls and visually evaluated. Plant response ratings, summarized in Table B, are based on a scale of 0 to 10 where 0 is no effect and 10 is complete control. A dash (−) response means no test result.

[2] = tested on: blackgrass; assay: Test B pre/postemergence blackgrass; format: in vivo, Alopecurus myosuroides
Excerpt: as §1, §2

[3] = tested on: surinam grass; assay: Test B pre/postemergence surinam grass; format: in vivo, Brachiaria decumbens
Excerpt: as §1, §2

[4] = tested on: cocklebur; assay: Test B pre/postemergence cocklebur; format: in vivo, Xanthium strumarium
Excerpt: as §1, §2

[5] = tested on: corn; assay: Test B pre/postemergence corn; format: in vivo, Zea mays
Excerpt: as §1, §2

[6] = tested on: crabgrass; assay: Test B pre/postemergence crabgrass; format: in vivo, Digitaria sanguinalis
Excerpt: as §1, §2

[7] = tested on: giant foxtail; assay: Test B pre/postemergence giant foxtail; format: in vivo, Setaria faberii
Excerpt: as §1, §2

[8] = tested on: morningglory; assay: Test B pre/postemergence morningglory; format: in vivo, Ipomoea hederacea
Excerpt: as §1, §2

[9] = tested on: pigweed; assay: Test B pre/postemergence pigweed; format: in vivo, Amaranthus retroflexus
Excerpt: as §1, §2

[10] = tested on: rape; assay: Test B pre/postemergence rape; format: in vivo, Brassica napus
Excerpt: as §1, §2

[11] = tested on: soybean; assay: Test B pre/postemergence soybean; format: in vivo, Glycine max
Excerpt: as §1, §2

[12] = tested on: sugar beet; assay: Test B pre/postemergence sugar beet; format: in vivo, Beta vulgaris
Excerpt: as §1, §2

[13] = tested on: velvetleaf; assay: Test B pre/postemergence velvetleaf; format: in vivo, Abutilon theophrasti
Excerpt: as §1, §2

[14] = tested on: wheat; assay: Test B pre/postemergence wheat; format: in vivo, Triticum aestivum
Excerpt: as §1, §2

[15] = tested on: wild oat; assay: Test B pre/postemergence wild oat; format: in vivo, Avena fatua
Excerpt: as §1, §2

[16] = tested on: purple nutsedge; assay: Test B pre/postemergence purple nutsedge; format: in vivo, Cyperus rotundus
Excerpt: as §1, §2

[17] = Postemergence, Rate 62 g/ha, scale of 0 to 10, 0 is no effect, 10 is complete control
[18] = Postemergence, Rate 125 g/ha, scale 0 to 10, 0 is no effect, 10 is complete control
[19] = Postemergence, Rate 250 g/ha, scale 0 to 10
[20] = Postemergence, Rate 500 g/ha, scale 0 to 10, 0 is no effect, 10 is complete control
[21] = Preemergence, Rate 62 g/ha, scale of 0 to 10 where 0 is no effect and 10 is complete control
[22] = Preemergence, Rate 125 g/ha, scale 0 to 10, 0 is no effect, 10 is complete control
[23] = Preemergence, Rate 250 g/ha, scale 0 to 10, 0 is no effect, 10 is complete control
[24] = Preemergence, Rate 500 g/ha, scale of 0 to 10 where 0 is no effect and 10 is complete control

C=CCCCn1c(=O)on(C(=O)N(c2ccc(F)cc2F)C(C)C)c1=O [Compound 516]
Plant response rating, Bedstraw ([1]; Rate 62 g/ha, scale of 0 to 10 where 0 is no effect and 10 is complete control): 0 | Bedstraw plant response rating ([1]; Rate 125 g/ha): 0 | Bedstraw plant response rating ([1]; Rate 250 g/ha): 1 | Bedstraw plant response rating ([1]; Rate 500 g/ha): 7 | Blackgrass plant response rating [2, 17]: 0 | Blackgrass plant response rating [2, 18]: 4 | Blackgrass plant response rating [2, 19]: 7 | Plant response rating, Blackgrass [2, 20]: 7 | Plant response rating, Blackgrass [2, 21]: 3 | Blackgrass plant response rating [2, 22]: 5 | Blackgrass plant response rating [2, 23]: 8 | Blackgrass plant response rating [2, 24]: 10 | B. signalgrass plant response rating [3, 17]: 0 | B. signalgrass plant response rating [3, 18]: 0 | B. signalgrass plant response rating ([3]; Postemergence, Rate 250 g/ha, scale 0 to 10, 0 no effect, 10 complete control): 3 | Plant response rating, B. signalgrass [3, 20]: 5 | Plant response rating, B. signalgrass [3, 21]: 1 | B. signalgrass plant response rating [3, 22]: 5 | B. signalgrass plant response rating [3, 23]: 9 | B. signalgrass plant response rating ([3]; Preemergence, Rate 500 g/ha, scale 0 to 10, 0 is no effect, 10 is complete control): 10 | Cocklebur plant response rating [4, 17]: 2 | Cocklebur plant response rating [4, 18]: 3 | Cocklebur plant response rating [4, 19]: 3 | Plant response rating, Cocklebur [4, 20]: 5 | Plant response rating, Cocklebur [4, 21]: 0 | Cocklebur plant response rating [4, 22]: 0 | Cocklebur plant response rating [4, 23]: 0 | Cocklebur plant response rating [4, 24]: 0 | Corn plant response rating [5, 17]: 0 | Corn plant response rating [5, 18]: 0 | Corn plant response rating [5, 19]: 0 | Plant response rating, Corn [5, 20]: 0 | Plant response rating, Corn [5, 21]: 0 | Corn plant response rating [5, 22]: 0 | Corn plant response rating [5, 24]: 0 | Crabgrass plant response rating [6, 17]: 3 | Crabgrass plant response rating [6, 18]: 9 | Plant response rating, Crabgrass [6, 20]: 9 | Plant response rating, Crabgrass [6, 21]: 6 | Crabgrass plant response rating [6, 22]: 9 | Crabgrass plant response rating [6, 24]: 10 | Giant foxtail plant response rating [7, 17]: 0 | Giant foxtail plant response rating [7, 18]: 5 | Plant response rating, Giant foxtail [7, 20]: 9 | Plant response rating, Giant foxtail [7, 21]: 10 | Giant foxtail plant response rating [7, 22]: 10 | Giant foxtail plant response rating [7, 24]: 10 | Morningglory plant response rating [8, 17]: 2 | Morningglory plant response rating [8, 18]: 3 | Plant response rating, Morningglory [8, 20]: 7 | Plant response rating, Morningglory [8, 21]: 0 | Morningglory plant response rating [8, 22]: 0 | Morningglory plant response rating [8, 24]: 0 | Redroot pigweed plant response rating [9, 17]: 4 | Plant response rating, Redroot pigweed [9, 20]: 8 | Plant response rating, Redroot pigweed [9, 21]: 7 | Redroot pigweed plant response rating [9, 24]: 10 | Rape plant response rating [10, 17]: 1 | Rape plant response rating [10, 18]: 4 | Plant response rating, Rape [10, 20]: 9 | Plant response rating, Rape [10, 21]: 0 | Rape plant response rating [10, 22]: 1 | Rape plant response rating [10, 24]: 9 | Soybean plant response rating [11, 17]: 4 | Soybean plant response rating [11, 18]: 4 | Plant response rating, Soybean [11, 20]: 7 | Plant response rating, Soybean [11, 21]: 0 | Soybean plant response rating [11, 22]: 0 | Soybean plant response rating [11, 24]: 0 | Sugarbeets plant response rating [12, 17]: 0 | Sugarbeets plant response rating [12, 18]: 0 | Plant response rating, Sugarbeets [12, 20]: 8 | Plant response rating, Sugarbeets [12, 21]: 1 | Sugarbeets plant response rating [12, 22]: 3 | Sugarbeets plant response rating [12, 24]: 7 | Velvetleaf plant response rating [13, 17]: 3 | Velvetleaf plant response rating [13, 18]: 4 | Plant response rating, Velvetleaf [13, 20]: 4 | Plant response rating, Velvetleaf [13, 21]: 0 | Velvetleaf plant response rating [13, 24]: 7 | Wheat plant response rating [14, 17]: 0 | Wheat plant response rating [14, 18]: 1 | Plant response rating, Wheat [14, 20]: 7 | Plant response rating, Wheat [14, 21]: 0 | Wheat plant response rating [14, 22]: 0 | Wheat plant response rating [14, 24]: 5 | Wild oats plant response rating [15, 17]: 0 | Wild oats plant response rating [15, 18]: 2 | Plant response rating, Wild oats [15, 20]: 5 | Plant response rating, Wild oats [15, 21]: 0 | Wild oats plant response rating [15, 22]: 5 | Wild oats plant response rating [15, 24]: 9 | Nutsedge plant response rating [16, 17]: 0 | Nutsedge plant response rating [16, 18]: 0 | Plant response rating, Nutsedge [16, 21]: 0 | Nutsedge plant response rating [16, 22]: 0 | Nutsedge plant response rating [16, 24]: 0
